Measured values as given in US20050165080A1, “Method for the treatment of diseases requiring inhibition or a reduction in the activity of pH value-regulating bicarbonate transporter proteins” (Solvay Pharmaceuticals GmbH, priority 2002, published 2005).

Tests used:
[1] = system: Na+-independent chloride-bicarbonate (Cl−/HCO3−) exchanger (AE) protein; assay: Intracellular pH recovery after alkalization (NH4Cl pulse) in BCECF-laden adult cardiac fibroblasts; assay type: cell-based, Wistar rats; conditions: for recovery after the intracellular alkalization, compared with guanabenz-pre-treated or non-pre-treated cells / percentage of the change in pH value still present, relative to the maximum alkaline pH value reached, after 5 min / percentage of the change in pH value still present, relative to the maximum alkaline pH value reached, after 8 min: 30 min preincubation; for recovery after the intracellular alkalization, compared with guanabenz-pre-treated or non-pre-treated cells: moxonidine 10^−6 to 10^−9 mole/liter, H2-DIDS 10^−3 mole/liter, NH4Cl pulse; for percentage of the change in pH value still present, relative to the maximum alkaline pH value reached, after 5 min / percentage of the change in pH value still present, relative to the maximum alkaline pH value reached, after 8 min: 10^−6 mole/liter, 5 mmole/liter NH4Cl pulse, cardiac fibroblasts, mean and standard deviation from 3 to 5 experiments; for percentage of the change in pH value still present, relative to the maximum alkaline pH value reached, after 5 min: 5 min after maximum alkaline pH; for percentage of the change in pH value still present, relative to the maximum alkaline pH value reached, after 8 min: 8 min after maximum alkaline pH
Description: (§1) The investigations were carried out on cardiac fibroblasts isolated from the left ventricle of the myocardium of 6-week-old Wistar rats. Myocardial tissue was placed in HBSS medium without Ca^2+ and Mg^2+ (GibcoBRL), cut into small pieces which were incubated with 1 mg/ml collagenase A (Roche) with continuous shaking for 10 minutes in HBSS medium. The first supernatant was discarded and the incubation operation was repeated three times, the supernatant being collected each time in a tube with 5 ml HBSS medium. After centrifuging at 160×g for 10 min, the pellet was re-suspended in a flask with DMEM (GibcoBRL), to which 10% foetal calf serum (FCS, from Sigma) was added. […] The flasks were incubated in an air-humidified incubator with 5% CO2 and at 37° C. Cardiac fibroblasts, which grew in a typical monolayer, were cultivated by standard cell culture techniques and at subconfluence were transferred into new flasks in a 1:3 ratio [Brilla et al. (1994) Collagen metabolism in cultured adult rat cardiac fibroblasts: response to agiotensin II and aldosterone. J. Mol. Cell Cardiol. 26: 809-820].
The intracellular pH value of an individual cell was measured using the fluorescent marker BCECF (2′,7′-bis-(2-carboxymethyl)-5-[and -6]-carboxyfluorescein from Molecular Probes), the fluorescent intensity of which is pH-dependent. The cardiac fibroblasts were grown on glass microscope slides until at subconfluence, and were then laden with BCECF-acetoxymethyl ester. The fibroblasts thus pre-treated were washed with PBS and then preincubated with various test solutions and then rinsed. In so doing, the intracellular fluorescence of the BCECF was measured using an inverted microscope, to which a “PTI 710 Photon Counting Detection” system (Photon Technology International) with two monochromators was connected. The data were analysed using a fluorescence spectrometer. The measurement results—fluorescence signals—were converted into pH values using a calibration curve.
Composition of the bicarbonate solution: 118 mmole/liter NaCl, 4.7 mmole/liter KCl, 2.5 mmole/liter CaCl2×2H2O, 1.6 mmole/liter MgCl2×7H2O, 24.9 mmole/liter NaHCO3, 1.2 mmole/liter KH2PO4, 5.6 mmole/liter glucose and either 0.4% or 10% FCS, equilibrated with 20% O2 and 5% CO2 for at least 30 minutes to ensure a pH value of 7.4.
The individual test solutions were based on the above bicarbonate solution and contained the following concentration of the compounds below: • 10^−6 mole/liter guanabenz (Sigma) • 10^−6 mole/liter to 10^−9 mole/liter moxonidine • 10^−3 mole/liter H2-DIDS (Molecular Probes) Intracellular alkalization of the cells was achieved by rinsing with a 5 mmole/liter NH4Cl-containing bicarbonate solution (NH4Cl pulse). Subsequent washing-out of the NH4Cl by rinsing the cells with fresh bicarbonate solution results in intracellular acidification.
The effect of moxonidine, DIDS and guanabenz on the change in the intracellular pH value after alkalization of the cells is determined by an NH4Cl pulse. To this end, the BCECF-laden cardiac fibroblasts were preincubated for 30 minutes with a bicarbonate test solution containing one of the above compounds. Then the response of the intracellular pH value of the cells thus pre-treated to a 5 mmole/liter NH4Cl pulse was measured over time. Also the change in pH value which took place during the subsequent washing-out of the NH4Cl (intracellular acidification) was further measured over time. […] To quantify the inhibitory effects, the percentage of the change in pH value still present relative to the maximum alkaline or maximum acidic pH value achieved was calculated.

[2] = system: Na+/bicarbonate (Na+/HCO3−) cotransporter (NBC) protein or/and Na+-dependent chloride-bicarbonate (Cl−/HCO3−) exchanger (NDAE and N(D)CBE) protein; assay: Intracellular pH recovery after acidification (NH4Cl wash-out) in cardiac fibroblasts; assay type: cell-based, Wistar rats; conditions: recovery from intracellular acidification
Description: as §1, with “Cardiac fibroblasts, which grew in a typical monolayer, were cultivated by standard cell culture techniques and at subconfluence were transferred into new flasks in a 1:3 ratio [Brilla et al. (1994) Collagen metabolism in cultured adult rat cardiac fibroblasts: response to agiotensin II and aldosterone. J. Mol. Cell Cardiol. 26: 809-820].” left out
The intracellular pH value of an individual cell was measured using the fluorescent marker BCECF (2′,7′-bis-(2-carboxymethyl)-5-[and -6]-carboxyfluorescein from Molecular Probes), the fluorescent intensity of which is pH-dependent. […] In so doing, the intracellular fluorescence of the BCECF was measured using an inverted microscope, to which a “PTI 710 Photon Counting Detection” system (Photon Technology International) with two monochromators was connected. The data were analysed using a fluorescence spectrometer. The measurement results—fluorescence signals—were converted into pH values using a calibration curve. […]

## O=S(=O)(O)c1cc(N=C=S)ccc1C=Cc1ccc(N=C=S)cc1S(=O)(=O)O [DIDS, 4,4′-diisothiocyanostilbene-4,4′-disulfonate]
[1]
  recovery after the intracellular alkalization, compared with guanabenz-pre-treated or non-pre-treated cells: considerably longer recovery

## N=C(N)N/N=C/c1c(Cl)cccc1Cl [Guanabenz]
[1]
  percentage of the change in pH value still present, relative to the maximum alkaline pH value reached, after 5 min: 20.6 ± 5.2%
  percentage of the change in pH value still present, relative to the maximum alkaline pH value reached, after 8 min: 9.9 ± 2.7%

## COc1nc(C)nc(Cl)c1NC1=NCCN1 [Moxonidine, 4-chloro-5-[(4,5-dihydro-1H-imidazol-2-yl)-amino]-6-methoxy-2-methylpyrimidine]
[1]
  percentage of the change in pH value still present, relative to the maximum alkaline pH value reached, after 5 min: 58.8 ± 12.0%
  percentage of the change in pH value still present, relative to the maximum alkaline pH value reached, after 8 min: 41.9 ± 24.4%
  recovery after the intracellular alkalization, compared with guanabenz-pre-treated or non-pre-treated cells: considerably longer recovery
[1]; concentration of 10^−8 mole/liter
  inhibitory effect on the recovery from the alkaline pH (dose-effect curve): significantly inhibitory action
[2]
  inhibition of NBC or/and NDAE and N(D)CBE proteins (result in words): selective inhibitor
